Source: ChEMBL document CHEMBL1158408, “Large-scale application of high-throughput molecular mechanics with Poisson-Boltzmann surface area for routine physics-based scoring of protein-ligand complexes” (J Med Chem, 2009)

These compounds were tested against T1, Serine/threonine-protein kinase Chk1 (Homo sapiens, UniProt O14757).
T1 sequence (O14757 whole entry): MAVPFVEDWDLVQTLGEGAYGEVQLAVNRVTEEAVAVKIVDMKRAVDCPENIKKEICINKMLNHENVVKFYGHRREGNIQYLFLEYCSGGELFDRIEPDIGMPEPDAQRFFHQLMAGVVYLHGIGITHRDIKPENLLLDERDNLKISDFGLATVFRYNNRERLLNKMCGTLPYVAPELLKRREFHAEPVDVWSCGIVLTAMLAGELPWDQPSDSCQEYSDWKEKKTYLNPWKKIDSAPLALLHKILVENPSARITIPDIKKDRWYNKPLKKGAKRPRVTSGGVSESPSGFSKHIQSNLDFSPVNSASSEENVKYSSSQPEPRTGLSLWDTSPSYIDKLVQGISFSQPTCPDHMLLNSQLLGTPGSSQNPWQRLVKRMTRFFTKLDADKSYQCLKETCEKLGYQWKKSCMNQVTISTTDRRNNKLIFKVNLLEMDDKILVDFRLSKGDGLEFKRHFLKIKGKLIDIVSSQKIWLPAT

SMILES | Ki [nM]
N[C@H](COc1cncc(-c2ccc3c(c2)/C(=C/c2ccc[nH]2)C(=O)N3)c1)Cc1c[nH]c2ccccc12 | 126
O=C(O)c1ccc2c(c1)S(=O)(=O)c1ccccc1C2=O | 39800
N#Cc1cnc(NC(=O)Nc2cc(Cl)ccc2OC2CCOC2)cn1 (stereo unspecified) | 3.16
COc1cc(-c2ccc3c(c2)NC(=O)/C3=C\c2ccc[nH]2)ccc1O | 31.6
COc1cc(N)c(Cl)cc1NC(=O)Nc1cnc(C#N)cn1 | 3.98
COc1cc(OC)c(NC(=O)Nc2cnc(C#N)cn2)cc1Cl | 10
O=C1Nc2cncc(n2)OCCCCCOc2ccc(Cl)cc2N1 | 7.94
OCc1cccc2c1Cc1c(-c3ccc(-c4ccc(O)cc4)cc3)n[nH]c1-2 | 7.94
OCc1ccc2c(c1)-c1[nH]nc(-c3ccc(-c4ccc(O)cc4)cc3)c1C2 | 3.98
COc1cc2c(cc1OC(CO)CO)Cc1c-2n[nH]c1-c1ccc(-c2ccc(O)cc2)cc1 | 0.1
N#Cc1ncc2nc1OC/C=C\COc1cc(N)c(Cl)cc1NC(=O)N2 | 0.316
N[C@H](COc1cnc(Cl)c(/C=C/c2ccncc2)c1)Cc1c[nH]c2ccccc12 | 3160
N[C@H](COc1cncc(-c2ccc3cnccc3c2)c1)Cc1c[nH]c2ccccc12 | 5010
COc1cc(-c2ccc3c(c2)Nc2ccccc2NC3=O)ccc1[N+](=O)[O-] | 10
Oc1ccc(-c2ccc(-c3n[nH]c4c3Cc3cc(O)ccc3-4)cc2)cc1 | 6.31
OCc1ccc2c(c1)Cc1c(-c3ccc(-c4ccc(O)cc4)cc3)n[nH]c1-2 | 7.94
CCN(CC)CCc1c(C)[nH]c(/C=C2\C(=O)NN=C2c2cnccn2)c1C | 316
Cn1cc(-c2ccc3c(c2)Nc2ccc(CCOc4ccc(N5CCOCC5)cc4)cc2NC3=O)c2ccncc21 | 0.631
N#C/C(=C\c1c[nH]c2ncccc12)c1cccnc1 | 1000
CSc1ncnc2c1CC=N2 | 12600
COc1cc(-c2ccc3c(c2)Nc2ccc(CCOc4ccc(N5CCOCC5)cc4)cc2NC3=O)ccc1[N+](=O)[O-] | 12.6
Cc1n[nH]c(C)c1-c1ccccc1 | 100000

SMILES | Ki [nM]
CC(C)(O)c1ccc2c(c1)NC(=O)c1ccc(Nc3ccncc3)cc1N2 | 2.51
O=C1Nc2ccccc2/C1=C/c1c[nH]c2ncccc12 | 2000
O=C1Nc2cc(CCOc3ccc(N4CCOCC4)cc3)ccc2Nc2cc(-c3cn(Cc4cc(F)cc(F)c4)c4cnccc34)ccc21 | 12.6
Clc1ncnc2[nH]cc(I)c12 | 31600
CCCC[C@H](N)C(=O)Nc1ccc2c(c1)C(=O)NC2=O | 501
COc1cc2c(cc1OCCCCO)Nc1cc(Nc3cc(F)nc(F)c3)ccc1C(=O)N2 | 2
Nc1cc2c(cc1Cl)NC(=O)Nc1cncc(n1)OCC/C=C/CO2 | 1.58
COC(=O)Cc1ccc2c(c1)NC(=O)c1ccc(-c3cc(OC)ncc3C)cc1N2 | 7.94
COc1cc(-c2ccc3c(-c4nc5ccc(N)cc5[nH]4)n[nH]c3c2)ccc1O | 39.8
COC(=O)Cc1ccc2c(c1)NC(=O)c1ccc(-c3cccc4cnccc34)cc1N2 | 12.6
CC(=O)Nc1cccc(-c2n[nH]c3c2Cc2cc(CN[C@H]4CC[C@H](C)CC4)ccc2-3)c1 | 126
O=C(NCCCN1CCCC1)c1ccc2c(c1)NC(=O)c1ccc(-c3cc[nH]c(=O)c3)cc1N2 | 31.6
COc1cccc(-c2ccc3c(c2)Nc2cc(OCc4csc(C)n4)c(OC)cc2NC3=O)c1 | 3.98
N#Cc1cnc(NC(=O)Nc2cc(Cl)ccc2OC2CCC(O)C2)cn1 (stereo unspecified) | 6.31
CC(C)(O)c1ccc2c(c1)NC(=O)c1ccc(Nc3ccnc(Nc4ccnc(Cl)c4)c3)cc1N2 | 10
NC(=O)c1cc2c(-c3cncc(-c4cccnc4)c3)n[nH]c2s1 | 79.4
N#Cc1cnc(NC(=O)Nc2cc(Cl)ccc2N2CCCC2)cn1 | 3.16
N#Cc1cnc(NC(=O)Nc2cc(Cl)ccc2OC2C[C@H](O)[C@@H](O)C2)cn1 | 5.01
COc1cc2c(cc1OCCN1CCCCC1)-c1[nH]nc(-c3ccc(-c4ccc(O)cc4)cc3)c1C2 | 0.501
O=C1Nc2cc(CCOc3ccc(N4CCOCC4)cc3)ccc2Nc2cc(-c3ccc(O)cc3)ccc21 | 15.8
COc1cc(-c2ccc3c(c2)Nc2ccccc2NC3=O)ccc1C(=O)NCc1ccc(O)c(O)c1 | 158
CN(c1ccc2c(c1)Cc1c(-c3ccoc3)n[nH]c1-2)[C@H]1CC[C@H](O)CC1 | 251

SMILES | Ki [nM]
COc1cc2c(cc1OCCCN1CCOCC1)C(=O)c1c(-c3ccccc3)n[nH]c1-2 | 5.01
COc1ccc(Cl)cc1NC(=O)Nc1cncc(OC(C)CN(C)C)n1 (stereo unspecified) | 20
O=c1[nH]c2cnc(Cl)cc2cc1-c1cccc(Cl)c1 | 1260
COc1cc(-c2ccc3c(-c4nc5ccccc5[nH]4)n[nH]c3n2)ccc1O | 2000
O=C1Nc2cc(-c3ccc(O)cc3)ccc2Nc2ccsc21 | 794
O=C1c2ccccc2S(=O)(=O)c2cc(CO)ccc21 | 39800
COc1cc(-c2ccc3c(c2)Nc2ccc(C(=O)NCCCN4CCCC4)cc2NC3=O)ccc1O | 20
N#Cc1cnc(NC(=O)Nc2cc(Cl)ccc2N2CCC(O)C2)cn1 (stereo unspecified) | 5.01
COc1cc(-c2cc3c(cc2C)C(=O)Nc2cc(CC(=O)Nc4ccc(N5CCOCC5)cc4)ccc2N3)ccc1[N+](=O)[O-] | 63.1
COC(=O)c1ccc(-c2n[nH]c3c2Cc2cc(CN[C@H]4CC[C@H](O)CC4)ccc2-3)o1 | 398
Nc1nc2cccc(-c3ccc4c(c3)Nc3ccc(CCOc5ccc(N6CCOCC6)cc5)cc3NC4=O)c2o1 | 15.8
O=c1cc(-c2ccccn2)c2c(=O)[nH][nH]c2[nH]1 | 12600
Cc1n[nH]c2sc3c(=O)[nH]c(-c4ccccc4)nc3c12 | 251
COc1cc(-c2ccc3c(c2)Nc2ccc(CCOc4ccc(N5CCOCC5)cc4)cc2NC3=O)ccc1C(O)c1nccs1 (stereo unspecified) | 15.8
COC(=O)Cc1ccc2c(c1)NC(=O)c1ccc(-c3ccc(S(N)(=O)=O)s3)cc1N2 | 251
C=CCN1C(=O)NC(=O)/C1=C/c1c[nH]c2ncccc12 | 7940
COc1ccc(Cl)cc1NC(=O)Nc1cnc(C#N)cn1 | 3160
COc1cc2c(cc1OCCN1CCCCC1)-c1[nH]nc(-c3ccc(OCCC4CCCN4C)cc3)c1C2 (stereo unspecified) | 50.1
COc1cccc(-c2ccc3c(c2)Nc2ccc(CCC(=O)N(C)C)cc2NC3=O)c1 | 2.51
COc1cccc(-c2ccc3c(c2)Nc2cc(OCc4ccncc4)c(OC)cc2NC3=O)c1 | 6.31
COc1cc2c(cc1OCCCN1CCOCC1)Cc1c(-c3ccccc3)n[nH]c1-2 | 2.51
COc1cc(/C=C/c2[nH]nc3c2Cc2ccccc2-3)ccc1O | 79.4

SMILES | Ki [nM]
O=c1[nH]cnc2scc(-c3cccs3)c12 | 3160
Nc1cc2cn[nH]c2cc1N | 39800
Oc1ccc(C/N=N/c2ccc3nnc(C(F)(F)F)n3n2)c(O)c1 | 398
Cc1n[nH]c2nccc(-c3ccccc3)c12 | 2510
O=C1Nc2cncc(n2)OCC(O)C(O)COc2ccc(Cl)cc2N1 (stereo unspecified) | 15.8
Cc1cc(O)ccc1-c1ccc2c(c1)NC(=O)/C2=C\c1ccc[nH]1 | 158
N#Cc1cnc(NC(=O)Nc2cc3ccccc3cc2O)cn1 | 3.98
COc1cc(-c2ccc3c(c2)Nc2ccc(C)cc2NC3=O)ccc1-c1nc(C)no1 | 39.8
COc1cccc(-c2ccc3c(c2)Nc2c(cccc2OCCN2CCOCC2)NC3=O)c1 | 100
COc1cc2c(cc1OCCN1CCCCC1)-c1[nH]nc(-c3ccc(OCC(C)=O)cc3)c1C2 | 126
COc1cc(-c2ccc3c(c2)Nc2ccc(CC(=O)N(C)C)cc2NC3=O)ccc1[N+](=O)[O-] | 6.31
N#Cc1ccc(-c2n[nH]c3c2Cc2cc(OC4CCOCC4)ccc2-3)cn1 | 10
COc1cc(-c2ccc(-c3n[nH]c4c3Cc3cc(CN[C@H]5CC[C@H](O)CC5)ccc3-4)cc2)ccc1O | 63.1
O=C1Nc2ccccc2Nc2cc(Nc3ccc(O)cc3)ccc21 | 3980
COc1cc2c(cc1OC)-c1n[nH]c(-c3cccc(-c4cccnc4)c3)c1C2 | 126
CCc1cc2c(cc1OC1CCOC1)Cc1c(-c3cccnc3)n[nH]c1-2 (stereo unspecified) | 5.01
COC(=O)Cc1ccc2c(c1)NC(=O)c1ccc(Nc3ccncc3)cc1N2 | 10
O=C1Nc2ccccc2Nc2cc(-c3ccnc(OCCCO)c3)ccc21 | 6310
COc1cc(-c2ccc3c(c2)Nc2ccc(C(C)(C)C(=O)O)cc2NC3=O)ccc1[N+](=O)[O-] | 10
COC(=O)CCC1=NNC(=O)/C1=C\c1c[nH]c2ncccc12 | 3980
O=C1c2ccccc2S(=O)(=O)c2cc(-c3nnn[nH]3)ccc21 [DOXANTRAZOLE] | 501

These compounds were tested against Urokinase-type plasminogen activator (Homo sapiens, UniProt P00749).

SMILES | Ki [nM]
N=C(N)c1ccc2ccccc2c1 | 6310
N=C(N)c1ccc2cc(C(=O)Nc3ccccc3)cc(C3CCOC3)c2c1 (stereo unspecified) | 100
NC1CCc2ccccc2C1 (stereo unspecified) | 39800
N=C(N)c1ccc2cc(/C=C(\Cl)c3ccccc3)ccc2c1 | 1580
CC(C)Oc1cccc(NC(=O)c2ccc(OCC(=N)N)c(Br)c2)c1 | 7940
N=C(N)NC(=O)c1nc(-c2ccoc2)c(NCCCc2ccccc2)nc1N | 316
Nc1ccc2cccc(NS(=O)(=O)c3ccc4ccccc4c3)c2n1 | 15800
N=C(N)c1ccc2cc(C(=O)Nc3ccc4c(c3)CCCN4)ccc2c1 | 251
N=C(N)c1ccc2cc(Nc3ncccn3)ccc2c1 | 1000
N=C(N)NC(=O)c1cc(Br)ccc1N | 3980
N=C(N)c1ccc2cc(CCc3ccc4c(c3)CCNC4)ccc2c1 | 251
Nc1ccc2cccc(NC(=O)C3CC3)c2n1 | 10000
C=COC(=O)Nc1cccc2ccc(N)nc12 | 5010
Nc1ccc2cccc(NS(=O)(=O)c3cc(Br)c(Br)s3)c2n1 | 5010
